# Columns and labels:
# bedstraw = experiment: Test B pre/postemergence bedstraw; type: in vivo, Galium aparine
# Method in brief: (§1)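 Herbicidal effect was estimated by eye on a ten-point control scale after plants spent twelve to sixteen days in a greenhouse following soil or foliar treatment. Foliar sprays targeted plants at one to four leaves; all doses were formulated in a non-phytotoxic solvent with surfactant.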
# blackgrass = experiment: Test B pre/postemergence blackgrass; type: in vivo, Alopecurus myosuroides
# Method in brief: as §1
# surinam grass = experiment: Test B pre/postemergence surinam grass; type: in vivo, Brachiaria decumbens
# Method in brief: as §1
# corn = experiment: Test B pre/postemergence corn; type: in vivo, Zea mays
# Method in brief: as §1
# giant foxtail = experiment: Test B pre/postemergence giant foxtail; type: in vivo, Setaria faberii
# Method in brief: as §1
# morningglory = experiment: Test B pre/postemergence morningglory; type: in vivo, Ipomoea hederacea
# Method in brief: as §1
# pigweed = experiment: Test B pre/postemergence pigweed; type: in vivo, Amaranthus retroflexus
# Method in brief: as §1
# rape = experiment: Test B pre/postemergence rape; type: in vivo, Brassica napus
# Method in brief: as §1
# soybean = experiment: Test B pre/postemergence soybean; type: in vivo, Glycine max
# Method in brief: as §1
# sugar beet = experiment: Test B pre/postemergence sugar beet; type: in vivo, Beta vulgaris
# Method in brief: as §1
# velvetleaf = experiment: Test B pre/postemergence velvetleaf; type: in vivo, Abutilon theophrasti
# Method in brief: as §1
# purple nutsedge = experiment: Test B pre/postemergence purple nutsedge; type: in vivo, Cyperus rotundus
# Method in brief: as §1
# rice = experiment: Test B flood test rice; type: in vivo, Oryza sativa
# Method in brief: (§2)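 Read-out is a visual response score from 0 (no effect) to 10 (complete control), assigned by comparison with untreated controls. Treatment was applied at the 2-leaf stage, and plants stayed in the greenhouse for twelve to sixteen days before scoring.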
# smallflower flatsedge = experiment: Test B flood test smallflower flatsedge; type: in vivo, Cyperus difformis
# Method in brief: as §2
# duck salad = experiment: Test B flood test duck salad; type: in vivo, Heteranthera limosa
# Method in brief: as §2
# bamyardgrass = experiment: Test B flood test barnyardgrass; type: in vivo, Echinochloa crus-galli
# Method in brief: as §2
# [1] = Postemergence, Rate 62 g/ha, scale 0 to 10, 0 is no effect, 10 is complete control
# [2] = Preemergence, Rate 62 g/ha, scale 0 to 10, 0 is no effect, 10 is complete control
# [3] = Preemergence, Rate 125 g/ha, scale 0 to 10 (0 no effect, 10 complete control)
# [4] = Preemergence, Rate 250 g/ha, scale of 0 to 10 where 0 is no effect and 10 is complete control
# [5] = Preemergence, Rate 500 g/ha, scale 0 (no effect) to 10 (complete control)
# [6] = Postemergence, Rate 250 g/ha, scale 0 to 10, 0 no effect, 10 complete control
# [7] = Rate 125 g/ha, Postemergence, scale 0 to 10, 0 no effect, 10 complete control
# [8] = Rate 500 g/ha, Postemergence, 0 to 10 scale (0 no effect, 10 complete control)
# [9] = Rate 125 g/ha, Postemergence section (flood test species), scale 0 to 10, 0 no effect, 10 complete control
# [10] = Rate 500 g/ha, Postemergence section of Table B, 0 to 10 scale (0 no effect, 10 complete control)
# [11] = flood test, listed under Postemergence, Rate 250 g/ha, scale 0 to 10, 0 no effect, 10 complete control
compound,measurement,setting,value
Cc1ccccc1-n1c(=O)on(C(=O)N(c2ccc(Cl)cc2)C(C)C)c1=O [Compound 41],Bedstraw plant response rating,bedstraw; [1],0
same,"Plant response rating, Bedstraw",bedstraw; [2],0
same,"Plant response rating, Bedstraw",bedstraw; [3],0
same,"Plant response rating, Bedstraw",bedstraw; [4],0
same,Bedstraw plant response rating,bedstraw; [5],0
same,Blackgrass plant response rating,blackgrass; [1],0
same,Blackgrass plant response rating,blackgrass; [6],3
same,"Plant response rating, Blackgrass",blackgrass; [2],0
same,"Plant response rating, Blackgrass",blackgrass; [3],0
same,"Plant response rating, Blackgrass",blackgrass; [4],2
same,Blackgrass plant response rating,blackgrass; [5],4
same,Blackgrass plant response rating,blackgrass; [7],0
same,Blackgrass plant response rating,blackgrass; [8],4
same,B. signalgrass plant response rating,surinam grass; [1],0
same,B. signalgrass plant response rating,surinam grass; [6],0
same,"Plant response rating, B. signalgrass",surinam grass; [2],0
same,"Plant response rating, B. signalgrass",surinam grass; [3],0
same,"Plant response rating, B. signalgrass",surinam grass; [4],4
same,B. signalgrass plant response rating,surinam grass; [5],7
same,B. signalgrass plant response rating,surinam grass; [7],0
same,B. signalgrass plant response rating,surinam grass; [8],0
same,Corn plant response rating,corn; [1],0
same,Corn plant response rating,corn; [6],0
same,"Plant response rating, Corn",corn; [2],0
same,"Plant response rating, Corn",corn; [3],0
same,"Plant response rating, Corn",corn; [4],0
same,Corn plant response rating,corn; [5],0
same,Corn plant response rating,corn; [7],0
same,Corn plant response rating,corn; [8],0
same,Giant foxtail plant response rating,giant foxtail; [1],0
same,Giant foxtail plant response rating,giant foxtail; [6],1
same,"Plant response rating, Giant foxtail",giant foxtail; [2],4
same,"Plant response rating, Giant foxtail",giant foxtail; [3],9
same,"Plant response rating, Giant foxtail",giant foxtail; [4],10
same,Giant foxtail plant response rating,giant foxtail; [5],10
same,Giant foxtail plant response rating,giant foxtail; [7],0
same,Giant foxtail plant response rating,giant foxtail; [8],1
same,Morningglory plant response rating,morningglory; [1],1
same,Morningglory plant response rating,morningglory; [6],2
same,"Plant response rating, Morningglory",morningglory; [2],0
same,"Plant response rating, Morningglory",morningglory; [3],0
same,"Plant response rating, Morningglory",morningglory; [4],0
same,Morningglory plant response rating,morningglory; [5],0
same,Morningglory plant response rating,morningglory; [7],2
same,Morningglory plant response rating,morningglory; [8],6
same,Redroot pigweed plant response rating,pigweed; [1],0
same,Redroot pigweed plant response rating,pigweed; [6],3
same,"Plant response rating, Redroot pigweed",pigweed; [2],0
same,"Plant response rating, Redroot pigweed",pigweed; [3],1
same,"Plant response rating, Redroot pigweed",pigweed; [4],1
same,Redroot pigweed plant response rating,pigweed; [5],7
same,Redroot pigweed plant response rating,pigweed; [7],0
same,Redroot pigweed plant response rating,pigweed; [8],5
same,Rape plant response rating,rape; [1],0
same,Rape plant response rating,rape; [6],0
same,"Plant response rating, Rape",rape; [2],0
same,"Plant response rating, Rape",rape; [3],0
same,"Plant response rating, Rape",rape; [4],0
same,Rape plant response rating,rape; [5],0
same,Rape plant response rating,rape; [7],0
same,Rape plant response rating,rape; [8],0
same,Soybean plant response rating,soybean; [1],3
same,Soybean plant response rating,soybean; [6],4
same,"Plant response rating, Soybean",soybean; [2],0
same,"Plant response rating, Soybean",soybean; [3],0
same,"Plant response rating, Soybean",soybean; [4],0
same,Soybean plant response rating,soybean; [5],0
same,Soybean plant response rating,soybean; [7],3
same,Sugarbeets plant response rating,sugar beet; [1],0
same,Sugarbeets plant response rating,sugar beet; [6],0
same,"Plant response rating, Sugarbeets",sugar beet; [2],0
same,"Plant response rating, Sugarbeets",sugar beet; [3],0
same,"Plant response rating, Sugarbeets",sugar beet; [4],0
same,Sugarbeets plant response rating,sugar beet; [5],0
same,Sugarbeets plant response rating,sugar beet; [7],0
same,Velvetleaf plant response rating,velvetleaf; [1],0
same,Velvetleaf plant response rating,velvetleaf; [6],0
same,"Plant response rating, Velvetleaf",velvetleaf; [2],0
same,"Plant response rating, Velvetleaf",velvetleaf; [3],0
same,"Plant response rating, Velvetleaf",velvetleaf; [4],0
same,Velvetleaf plant response rating,velvetleaf; [5],0
same,Velvetleaf plant response rating,velvetleaf; [7],0
same,Nutsedge plant response rating,purple nutsedge; [1],0
same,Nutsedge plant response rating,purple nutsedge; [6],0
same,"Plant response rating, Nutsedge",purple nutsedge; [2],0
same,"Plant response rating, Nutsedge",purple nutsedge; [3],0
same,"Plant response rating, Nutsedge",purple nutsedge; [4],0
same,Nutsedge plant response rating,purple nutsedge; [5],0
same,Nutsedge plant response rating,purple nutsedge; [7],0
same,Nutsedge plant response rating,purple nutsedge; [8],0
same,Rice plant response rating,rice; [1],0
same,Rice plant response rating,rice; [9],0
same,Rice plant response rating,rice; [10],0
same,Rice plant response rating,rice; [11],0
same,S. Flatsedge plant response rating,smallflower flatsedge; [1],0
same,S. Flatsedge plant response rating,smallflower flatsedge; [9],0
same,S. Flatsedge plant response rating,smallflower flatsedge; [11],0
same,Ducksalad plant response rating,duck salad; [1],0
same,Ducksalad plant response rating,duck salad; [9],0
same,Ducksalad plant response rating,duck salad; [10],0
same,Ducksalad plant response rating,duck salad; [11],0
same,Barnyardgrass plant response rating,bamyardgrass; [1],0
same,Barnyardgrass plant response rating,bamyardgrass; [9],0
same,Barnyardgrass plant response rating,bamyardgrass; [10],0
same,Barnyardgrass plant response rating,bamyardgrass; [11],0
CC(C)Oc1cc(-n2c(=O)on(C(=O)N(c3ccc(F)cc3)C(C)C)c2=O)c(Cl)cc1Cl [Compound 43],Bedstraw plant response rating,bedstraw; [1],0
same,Bedstraw plant response rating,bedstraw; [6],0
same,"Plant response rating, Bedstraw",bedstraw; [2],0
same,"Plant response rating, Bedstraw",bedstraw; [3],0
same,"Plant response rating, Bedstraw",bedstraw; [4],0
same,Bedstraw plant response rating,bedstraw; [5],2
same,Bedstraw plant response rating,bedstraw; [7],0
same,Bedstraw plant response rating,bedstraw; [8],2
same,Blackgrass plant response rating,blackgrass; [1],0
same,Blackgrass plant response rating,blackgrass; [6],0
same,"Plant response rating, Blackgrass",blackgrass; [2],0
same,"Plant response rating, Blackgrass",blackgrass; [3],0
same,"Plant response rating, Blackgrass",blackgrass; [4],0
same,Blackgrass plant response rating,blackgrass; [5],1
same,Blackgrass plant response rating,blackgrass; [7],0
same,Blackgrass plant response rating,blackgrass; [8],4
same,B. signalgrass plant response rating,surinam grass; [1],0
same,B. signalgrass plant response rating,surinam grass; [6],0
same,"Plant response rating, B. signalgrass",surinam grass; [2],0
same,"Plant response rating, B. signalgrass",surinam grass; [3],0
same,"Plant response rating, B. signalgrass",surinam grass; [4],0
same,B. signalgrass plant response rating,surinam grass; [5],0
same,B. signalgrass plant response rating,surinam grass; [7],0
same,B. signalgrass plant response rating,surinam grass; [8],0
same,Corn plant response rating,corn; [1],0
same,Corn plant response rating,corn; [6],0
same,"Plant response rating, Corn",corn; [2],0
same,"Plant response rating, Corn",corn; [3],0
same,"Plant response rating, Corn",corn; [4],0
same,Corn plant response rating,corn; [5],0
same,Corn plant response rating,corn; [7],0
same,Corn plant response rating,corn; [8],0
same,Giant foxtail plant response rating,giant foxtail; [1],0
same,Giant foxtail plant response rating,giant foxtail; [6],0
same,"Plant response rating, Giant foxtail",giant foxtail; [2],0
same,"Plant response rating, Giant foxtail",giant foxtail; [3],0
same,"Plant response rating, Giant foxtail",giant foxtail; [4],0
same,Giant foxtail plant response rating,giant foxtail; [5],0
same,Giant foxtail plant response rating,giant foxtail; [7],0
same,Giant foxtail plant response rating,giant foxtail; [8],0
same,Morningglory plant response rating,morningglory; [1],2
same,Morningglory plant response rating,morningglory; [6],3
same,"Plant response rating, Morningglory",morningglory; [2],0
same,"Plant response rating, Morningglory",morningglory; [3],0
same,"Plant response rating, Morningglory",morningglory; [4],0
same,Morningglory plant response rating,morningglory; [5],0
same,Morningglory plant response rating,morningglory; [7],3
same,Morningglory plant response rating,morningglory; [8],4
same,Redroot pigweed plant response rating,pigweed; [1],1
same,"Plant response rating, Redroot pigweed",pigweed; [2],0
same,"Plant response rating, Redroot pigweed",pigweed; [3],0
same,"Plant response rating, Redroot pigweed",pigweed; [4],0
same,Redroot pigweed plant response rating,pigweed; [5],4
same,Redroot pigweed plant response rating,pigweed; [7],2
same,Redroot pigweed plant response rating,pigweed; [8],6
same,Rape plant response rating,rape; [1],0
same,Rape plant response rating,rape; [6],0
same,"Plant response rating, Rape",rape; [2],0
same,"Plant response rating, Rape",rape; [3],0
same,"Plant response rating, Rape",rape; [4],0
same,Rape plant response rating,rape; [5],0
same,Rape plant response rating,rape; [7],0
same,Soybean plant response rating,soybean; [1],2
same,Soybean plant response rating,soybean; [6],3
same,"Plant response rating, Soybean",soybean; [2],0
same,"Plant response rating, Soybean",soybean; [3],0
same,"Plant response rating, Soybean",soybean; [4],0
same,Soybean plant response rating,soybean; [5],0
same,Soybean plant response rating,soybean; [7],3
same,Sugarbeets plant response rating,sugar beet; [1],0
same,Sugarbeets plant response rating,sugar beet; [6],1
same,"Plant response rating, Sugarbeets",sugar beet; [2],0
same,"Plant response rating, Sugarbeets",sugar beet; [3],0
same,"Plant response rating, Sugarbeets",sugar beet; [4],0
same,Sugarbeets plant response rating,sugar beet; [5],0
same,Sugarbeets plant response rating,sugar beet; [7],1
same,Velvetleaf plant response rating,velvetleaf; [1],0
same,Velvetleaf plant response rating,velvetleaf; [6],0
same,"Plant response rating, Velvetleaf",velvetleaf; [2],0
same,"Plant response rating, Velvetleaf",velvetleaf; [3],0
same,"Plant response rating, Velvetleaf",velvetleaf; [4],0
same,Velvetleaf plant response rating,velvetleaf; [5],0
same,Velvetleaf plant response rating,velvetleaf; [7],0
same,Nutsedge plant response rating,purple nutsedge; [1],0
same,Nutsedge plant response rating,purple nutsedge; [6],0
same,"Plant response rating, Nutsedge",purple nutsedge; [2],0
same,"Plant response rating, Nutsedge",purple nutsedge; [3],0
same,"Plant response rating, Nutsedge",purple nutsedge; [4],0
same,Nutsedge plant response rating,purple nutsedge; [5],0
same,Nutsedge plant response rating,purple nutsedge; [7],0
same,Nutsedge plant response rating,purple nutsedge; [8],0
same,Rice plant response rating,rice; [1],0
same,Rice plant response rating,rice; [9],0
same,Rice plant response rating,rice; [10],0
same,Rice plant response rating,rice; [11],0
same,S. Flatsedge plant response rating,smallflower flatsedge; [1],0
same,S. Flatsedge plant response rating,smallflower flatsedge; [9],0
same,S. Flatsedge plant response rating,smallflower flatsedge; [11],0
same,Ducksalad plant response rating,duck salad; [1],0
same,Ducksalad plant response rating,duck salad; [9],0
same,Ducksalad plant response rating,duck salad; [10],0
same,Ducksalad plant response rating,duck salad; [11],0
same,Barnyardgrass plant response rating,bamyardgrass; [1],0
same,Barnyardgrass plant response rating,bamyardgrass; [9],0
same,Barnyardgrass plant response rating,bamyardgrass; [10],0
same,Barnyardgrass plant response rating,bamyardgrass; [11],0

# Reference: patent US6737383B1, “Herbicidal oxadiazolidines” (priority 1999, dated 2004)
